Results as given in US20250353891A1 (MEDIMMUNE LIMITED, priority 2022, published 2025).
pEC50: −log10 of the molar value. Several values for one entry are separate records, joined by “and”; a condition that tells them apart may be missing. Equal entries are not always repeated. Each block holds one molecule with its values, some of them ahead of it. Starred links: 1 amine or outer side, 2 acyl side, 3 side chain; linkers in the order of their positions; H or OH if unused. Non-standard residues stand in square brackets, D forms with d. Residues, ends and D or L forms follow the SMILES beside them. Groups on a side chain read outwards from the residue. *: point of attachment. C20 diacid = O=C(O)CCCCCCCCCCCCCCCCCCC(=O)*; γGlu = O=C(O)[C@H](CCC(=O)[*:2])N[*:1]; αMeF = C[C@](N)(Cc1ccccc1)C(=O)O; AEEA = NCCOCCOCC(=O)O; Aib = CC(C)(N)C(=O)O

Assays:
in vivo [1] = conditions: 10 nmol/kg; for half-life: iv
Text: (§1) Selected test peptides (n=8) were profiled for pharmacokinetic (PK) properties in the mouse after single intravenous (i.v.) or subcutaneous (s.c.) dose. A subset (n=4) meeting the acceptance criteria was subsequently profiled in the dog (single i.v. dose) and non-human primate (single i.v. and s.c. dose). […] Low-binding plasticware containers were used during preparation and sample handling to avoid non-specific binding.
After dosing, PK samples were collected from the dorsal metatarsal vein. Blood of each sample was transferred into plastic micro centrifuge tubes containing EDTA-K2, inverted several times for proper mixing of contents and then placed on wet ice. The blood samples were centrifuged at 4° C. to obtain plasma and stored at −75° C. prior to analysis.
(§2) Samples analysis: Samples were analyzed by LC-MS/MS. Calibration standards were injected at the beginning and end of each batch and the determined concentration for each prepared standard was used to construct a calibration curve. Plasma and dose aliquot sample concentrations were determined from the plasma calibration curve.
(§3) Data analysis: Plasma concentration data was analyzed by non-compartmental analysis (NCA) using Phoenix Winnonlin v. 8.3.3.33. Linear trapezoidal rule was used for increasing values and log trapezoidal rule was used for decreasing values, applying uniform weighting for lambda_z calculations. Subcutaneous bioavailability was calculated as the ratio AUC(s.c.)0-inf/AUC(i.v.)0-inf. Reported values (Table 18) represent the mean of the individual estimates.

in vivo [2] = conditions: male, cynomolgus monkey, 10 nmol/kg
Text: as §1
Non-human primate: PK was studied in non-naïve male cynomolgus monkeys. After dosing, PK samples were collected from the femoral vein. Blood of each sample was transferred into plastic micro centrifuge tubes containing EDTA-K2, inverted several times for proper mixing of contents and then placed on wet ice. The blood samples were centrifuged under refrigerated (2° C. to 8° C.) conditions within 30 minutes following sample collection to obtain plasma and stored at −60° C. to −90° C.° C. prior to analysis.
as §2, §3

[3] = molecular target: human glucagon receptor (hGCGR) (Homo sapiens, UniProt P47871); experiment: cAMP production (HTRF) in CHO cells expressing hGCGR; format: cell-based; set-up: expressed in transfected cells; conditions: Table 6, peptides modified at position 17; cAMP in CHO hGCGR cells; geometric mean; read-out: hGluc-R EC50
Method in brief: (§4)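 Cells were resuspended in assay buffer at batch-optimized density, typically 1×10^5 cells/mL for hGLP-1R and 2×10^5 cells/mL for hGCGR. After 30 min incubation at room temperature with compound, cAMP was measured by two-step HTRF. EC50 values came from 4-parameter logistic fits of % Delta F.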

[4] = molecular target: human GLP-1 receptor (hGLP-1R) (Homo sapiens, UniProt P43220); experiment: cAMP production (HTRF) in CHO cells expressing hGLP-1R; format: cell-based; set-up: expressed in transfected cells
Method in brief: as §4

[5] = Mouse acute food intake study; format: in vivo; conditions: male C57Bl/6 mice, s.c., cumulative food intake at 24 hr vs vehicle
Method in brief: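 Peptide or vehicle went subcutaneously (5 mL/kg) to 6-8 h-fasted male C57Bl/6 mice shortly before the dark phase, with groups balanced on body weight and 24-hour intake. Cumulative food consumption was derived from 48 h of automated BioDaq monitoring with free food and water access.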

[6] = test system: GLP-1R knockout (KO) mice; experiment: Glucose change in GLP-1R knockout mice; format: in vivo, mouse; conditions: GLP-1R KO mice, s.c., 60 min vs 0 min, no somatostatin pretreatment
Method in brief: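 GLP-1R knockout mice (n=4-8/group, sorted by body weight) were fasted 2 h, and in some studies pretreated with octreotide 10 mg/kg 30 min before peptide injection. Mice were reused up to 3 times with at least 1-week wash-out.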

wildtype (WT) mice = experiment: Glucose change in wildtype mice; format: in vivo, mouse; conditions: s.c., 60 min vs 0 min, no somatostatin pretreatment
Method in brief: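 Wildtype mice aged 8-14 weeks, fasted 2 h, sometimes pre-treated with octreotide 10 mg/kg 30 min before peptide injection. Blood glucose by glucometer at -30, 0, 30, 60, 120, 180, 240 and 360 min; n=4-8/group, mice reused up to 3 times with ≥1 week wash-out.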

in vivo [7] = conditions: male, Beagle, dog, iv, 10 nmol/kg
Text: as §1
Blood of each sample was transferred into plastic micro centrifuge tubes containing EDTA-K2, inverted several times for proper mixing of contents and then placed on wet ice.
as §2, §3

recombinant Neprilysin = molecular target: T1, recombinant Neprilysin (Homo sapiens, UniProt P08473); experiment: Proteolytic resistance to neprilysin; format: in vitro ADME; conditions: pH 8.3
T1 construct: purchased R&D Systems 1182-ZNC-010
Procedure: 10.0 μg (˜10 units) recombinant Neprilysin (R&D Systems: 1182-ZNC-010) was reconstituted to 100 μL (100 μg/mL, ˜100 units/mL) in assay buffer (50 mM Tris, 50 mM NaCl, 50 mM NaHCO3, adjusted to pH 8.3) to give the enzyme stock solution. Peptide stock solutions were prepared to a concentration of ˜250 μM (˜1.0 mg/mL of 4 kDa peptide) in assay buffer. 100 μL (10 μg, ˜10 units) of neprilysin stock solution was added to 100 μL of peptide stock solution (1.0 mg/mL, ˜100 μg of peptide) and the mixture was co-incubated in a temperature regulated incubator at 37° C. for the duration of the experiment. 25 μL aliquots (˜ 12.5 μg initial peptide) of the peptide-enzyme mixture were periodically withdrawn (t=0, 30 mins, 1 h, 2 h, 4 h and 24 h) and quenched immediately by addition to an equal volume ([…]) of 10% TFA (v/v) in 1:1 water/acetonitrile to arrest proteolytic activity. The quenched aliquot centrifuged at 7800 rpm, and 30 μL of the supernatant was analyzed by analytical RP-HPLC as follows: Analytical RP-HPLC method: Agilent Polaris C8-A column (4.6×100 mm, 3 micron) eluted with a linear binary gradient of 10-90% MeCN (0.1% TFA v/v) in water (0.1% TFA v/v) over either 10 or 15 mins at 1.5 mL min-1 at 40° C. with detection by UV absorption at 210 nm. Manual integration (AUC) allowed estimation of remaining intact peptide over the time course of the experiment.

[8] = Proteolytic resistance to FasSSIF/Pancreatin; format: in vitro ADME; conditions: simulated intestinal fluid
Method in brief: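 Peptide (1.0 mg) in pre-warmed FasSSIF, proteolysis started with fresh FasSSIF/USP Pancreatin and held at 37 °C. Aliquots at 0, 5, 10, 15, 30 min quenched in 10% TFA; remaining intact peptide estimated by RP-HPLC peak area, UV 210 nm.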

[9] = Proteolytic resistance to FasSSGF containing porcine pancreatic pepsin; format: in vitro ADME; conditions: pig, simulated gastric fluid
Procedure: Stimulated Gastric Fluid (FasSSGF) Containing Porcine Pancreatic Pepsin Lyophilized porcine pancreatic pepsin (Sigma: P7012) was reconstituted to 0.5 mg/mL (˜2500 units/mL) in freshly prepared FasSSGF (Biorelevant media) to give the enzyme stock solution. Peptide stock solution was prepared to a concentration of 250 μM (˜1.0 mg/mL) in FasSSGF. 200 μL ([…], ˜250 units) of pepsin stock solution was added to 200 μL of peptide solution (1.0 mg/mL, ˜100 μg of peptide, ˜25 nmoles) and the mixture was co-incubated in a temperature-regulated incubator at 37° C. for the duration of the experiment. 30 μL aliquot of the peptide-enzyme mixture was periodically withdrawn (t=0, 5, 10, 15, and 30 min) and quenched immediately by addition of 80 μL of 0.1M ammonium bicarbonate solution in water/acetonitrile (4:1, pH 8) to arrest proteolytic activity. 30 μL aliquot was analyzed by analytical RP-HPLC. Analytical RP-HPLC method: Agilent Polaris C8-A column (4.6×100 mm, 3 micron) eluted with a linear binary gradient of 10-90% MeCN (0.1% TFA v/v) in water (0.1% TFA v/v) over either 10 or 15 mins at 1.5 mL min-1 at 40° C. with detection by UV absorption at 210 nm. Manual integration (AUC) allowed estimation of remaining intact peptide over the time course of the experiment.

T1 sequence (P08473 52-750 limits assumed): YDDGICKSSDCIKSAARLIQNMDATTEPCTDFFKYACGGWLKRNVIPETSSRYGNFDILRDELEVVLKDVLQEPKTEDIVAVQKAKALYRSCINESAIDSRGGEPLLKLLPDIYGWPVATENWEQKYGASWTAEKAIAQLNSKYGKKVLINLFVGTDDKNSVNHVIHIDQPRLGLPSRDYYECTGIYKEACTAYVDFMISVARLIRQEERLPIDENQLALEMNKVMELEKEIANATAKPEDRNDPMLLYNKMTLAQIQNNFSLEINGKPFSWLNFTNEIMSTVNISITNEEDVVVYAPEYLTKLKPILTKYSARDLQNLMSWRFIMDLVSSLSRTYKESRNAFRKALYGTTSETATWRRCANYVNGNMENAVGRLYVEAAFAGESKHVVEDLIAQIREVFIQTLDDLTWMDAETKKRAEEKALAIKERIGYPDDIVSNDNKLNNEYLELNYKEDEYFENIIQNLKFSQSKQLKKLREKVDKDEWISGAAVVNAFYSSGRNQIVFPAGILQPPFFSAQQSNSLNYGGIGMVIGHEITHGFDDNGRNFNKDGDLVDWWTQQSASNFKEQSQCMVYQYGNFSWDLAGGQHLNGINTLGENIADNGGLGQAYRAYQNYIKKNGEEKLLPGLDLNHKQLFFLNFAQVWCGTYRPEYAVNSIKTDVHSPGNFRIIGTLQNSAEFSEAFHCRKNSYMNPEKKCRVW
Chain of human GLP-1 receptor (hGLP-1R) (P43220 24-463): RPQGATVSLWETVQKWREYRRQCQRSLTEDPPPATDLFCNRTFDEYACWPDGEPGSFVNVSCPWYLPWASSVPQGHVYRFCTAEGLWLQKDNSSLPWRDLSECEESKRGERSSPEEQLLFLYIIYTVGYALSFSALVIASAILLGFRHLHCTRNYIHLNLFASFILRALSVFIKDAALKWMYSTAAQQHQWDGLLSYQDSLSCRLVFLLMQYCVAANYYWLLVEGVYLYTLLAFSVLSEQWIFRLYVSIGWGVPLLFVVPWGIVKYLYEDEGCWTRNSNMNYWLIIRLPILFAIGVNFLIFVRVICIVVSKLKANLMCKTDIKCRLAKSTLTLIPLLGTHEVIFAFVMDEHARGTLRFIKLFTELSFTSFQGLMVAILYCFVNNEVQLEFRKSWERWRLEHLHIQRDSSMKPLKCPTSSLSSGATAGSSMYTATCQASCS
Chain of human glucagon receptor (hGCGR) (P47871 26-477): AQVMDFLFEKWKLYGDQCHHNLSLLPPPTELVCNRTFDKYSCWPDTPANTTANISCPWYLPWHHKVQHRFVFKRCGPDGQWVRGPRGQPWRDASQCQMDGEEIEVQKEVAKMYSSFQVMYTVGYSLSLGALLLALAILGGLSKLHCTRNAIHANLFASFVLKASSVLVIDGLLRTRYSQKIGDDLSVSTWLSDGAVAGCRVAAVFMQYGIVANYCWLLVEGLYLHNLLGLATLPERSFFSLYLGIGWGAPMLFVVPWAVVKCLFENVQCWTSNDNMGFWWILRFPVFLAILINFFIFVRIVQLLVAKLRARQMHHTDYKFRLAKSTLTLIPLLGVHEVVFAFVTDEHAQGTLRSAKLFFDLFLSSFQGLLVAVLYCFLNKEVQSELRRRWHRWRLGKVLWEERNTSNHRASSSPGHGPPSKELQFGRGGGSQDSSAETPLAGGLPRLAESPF

bioavailability (in vivo [1]; male, C57BL/6, mouse): 98%
half-life (in vivo [1]; male, C57BL/6, mouse): 7.9 h
bioavailability (in vivo [2]): 79%
half-life (in vivo [2]; iv): 67 h
pEC50 [3]: 10.46
pEC50 ([4]; Table 6, peptides modified at position 17, cAMP in CHO hGLP-1R cells, geometric mean, read-out: hGLP-1R EC50): 10.68
% Relative Potency Ratio ([4]; Table 6, % GLP-1R activity relative to GLP-1 / % GlucR activity relative to glucagon): 3.3
half-life (in vivo [7]): 71 h
Compound: CC(C)C[C@H](NC(=O)[C@H](Cc1c[nH]c2ccccc12)NC(=O)[C@H](CCC(N)=O)NC(=O)[C@@H](NC(=O)[C@H](Cc1ccccc1)NC(=O)[C@H](CC(=O)O)NC(=O)[C@H](CCCNC(=N)N)NC(=O)[C@H](C)NC(=O)[C@H](CCCNC(=N)N)NC(=O)[C@H](CCCCNC(=O)COCCOCCNC(=O)COCCOCCNC(=O)CC[C@H](NC(=O)CCCCCCCCCCCCCCCCC(=O)O)C(=O)O)NC(=O)[C@@H](NC(=O)[C@H](CC(=O)O)NC(=O)[C@H](CC(C)C)NC(=O)[C@](C)(Cc1ccccc1)NC(=O)[C@H](CCCCN)NC(=O)[C@H](CO)NC(=O)[C@@H](NC(=O)[C@H](CC(=O)O)NC(=O)[C@H](CO)NC(=O)[C@@H](NC(=O)[C@H](Cc1ccccc1)NC(=O)[C@@H](NC(=O)CNC(=O)[C@H](CCC(N)=O)NC(=O)C(C)(C)NC(=O)[C@@H](N)Cc1c[nH]cn1)[C@@H](C)O)[C@@H](C)O)C(C)C)[C@@H](C)O)C(C)C)C(=O)N[C@@H](CC(C)C)C(=O)N[C@@H](CCC(=O)O)C(=O)NC(C)(C)C(=O)NCC(=O)O [Peptide 188, H-Aib-Q-G-T-F-T-S-D-V—S-K-αMePhe-L-D-T-K-R-A-R-D-F-V-Q-W-L-L-E-Aib-G-acid]
24 hr % Vehicle Food Intake ([5]; dose 1 nmol/kg): 99.9%
24 hr % Vehicle Food Intake ([5]; dose 3 nmol/kg): 80.6%
24 hr % Vehicle Food Intake ([5]; dose 10 nmol/kg): 60.7% and 49.8%
GLP-1R KO % glucose change - 60 min ([6]; 10 nmol/kg): 64%
GLP-1R KO % glucose change - 60 min ([6]; 30 nmol/kg): 44.6%
WT % glucose change 60 min (wildtype (WT) mice; 10 nmol/kg): −23.2%
WT % glucose change 60 min (wildtype (WT) mice; 30 nmol/kg): −31.3%

bioavailability (in vivo [1]; mouse): 86%
half-life (in vivo [1]; mouse): 19 h
remaining at 0.5 h (recombinant Neprilysin; isolated enzyme neprilysin): 100%
remaining at 2 h (recombinant Neprilysin; isolated enzyme neprilysin): 100%
remaining at 4 h (recombinant Neprilysin; isolated enzyme neprilysin): 100%
remaining at 24 h (recombinant Neprilysin; isolated enzyme neprilysin): 100%
% intact peptide over time (recombinant Neprilysin): 100%
remaining at 5 min, 3.3 mg/mL [8]: 60%
remaining at 10 min, 3.3 mg/mL [8]: 46%
remaining at 0.25 h, 3.3 mg/mL [8]: 33%
remaining at 0.5 h, 3.3 mg/mL [8]: 26%
remaining at 5 min, 125 µM [9]: 100%
remaining at 10 min, 125 µM [9]: 97%
remaining at 0.25 h, 125 µM [9]: 91%
remaining at 0.5 h, 125 µM [9]: 79%
Compound: CC[C@H](C)[C@H](NC(=O)C(C)(C)NC(=O)[C@H](CCC(N)=O)NC(=O)[C@@H](NC(=O)[C@](C)(Cc1ccccc1)NC(=O)[C@H](CC(=O)O)NC(=O)[C@H](CCCCNC(=O)COCCOCCNC(=O)COCCOCCNC(=O)CC[C@H](NC(=O)CC[C@H](NC(=O)CCCCCCCCCCCCCCCCCCC(=O)O)C(=O)O)C(=O)O)NC(=O)[C@H](C)NC(=O)[C@H](C)NC(=O)[C@H](CCCNC(=N)N)NC(=O)[C@H](CO)NC(=O)[C@H](CC(=O)O)NC(=O)[C@H](CC(C)C)NC(=O)[C@](C)(Cc1ccccc1)NC(=O)[C@H](CCCCN)NC(=O)[C@H](CO)NC(=O)[C@@H](NC(=O)[C@H](CC(=O)O)NC(=O)[C@H](CO)NC(=O)[C@@H](NC(=O)[C@](C)(Cc1ccccc1)NC(=O)[C@H](CO)NC(=O)CNC(=O)[C@H](Cc1c[nH]cn1)NC(=O)C(C)(C)NC(=O)[C@@H](N)Cc1c[nH]cn1)[C@@H](C)O)C(C)C)C(C)C)C(=O)N[C@@H](C)C(=O)N[C@@H](CC(N)=O)C(=O)N[C@H](C(N)=O)[C@@H](C)O [Peptide 229, H-Aib-H-G-S-αMePhe-T-S-D-V—S-K-αMePhe-L-D-S-R-A-A-K (E-(O2Oc)-(O2Oc)-γE-γE-C20diacid) 20-D-αMePhe-V-Q-Aib-I-A-N-T-amide] (H-H[Aib]HGS[αMeF]TSDVSK[αMeF]LDSRAAK([AEEA-AEEA-γGlu-γGlu-C20 diacid])D[αMeF]VQ[Aib]IANT-NH2; N-terminus assumed)
